Assay in all cases: CA Inhibition Assay
Conditions in all cases: pH 7.4

Test [1] addresses Carbonic anhydrase 1 (Homo sapiens, UniProt P00915).
For test [2], the target named is Carbonic anhydrase 2 (Homo sapiens, UniProt P00918).
For test [3], the target named is Carbonic anhydrase 4 (Homo sapiens, UniProt P22748).
Test [4] deals with Carbonic anhydrase 6 (Homo sapiens, UniProt P23280).

pKi: −log10 of the molar value. Where a name gives a salt, the structure may show the parent alone.

Sequence of Carbonic anhydrase 6 (P23280 whole entry): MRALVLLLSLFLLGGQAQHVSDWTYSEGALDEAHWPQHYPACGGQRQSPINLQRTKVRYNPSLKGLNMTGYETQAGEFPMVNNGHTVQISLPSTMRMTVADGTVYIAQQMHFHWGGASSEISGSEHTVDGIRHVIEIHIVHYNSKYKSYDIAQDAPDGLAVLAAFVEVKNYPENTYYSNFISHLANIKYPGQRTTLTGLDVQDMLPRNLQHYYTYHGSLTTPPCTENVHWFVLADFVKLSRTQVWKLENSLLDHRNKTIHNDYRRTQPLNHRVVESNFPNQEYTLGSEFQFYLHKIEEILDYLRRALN
Sequence of Carbonic anhydrase 1 (P00915 whole entry): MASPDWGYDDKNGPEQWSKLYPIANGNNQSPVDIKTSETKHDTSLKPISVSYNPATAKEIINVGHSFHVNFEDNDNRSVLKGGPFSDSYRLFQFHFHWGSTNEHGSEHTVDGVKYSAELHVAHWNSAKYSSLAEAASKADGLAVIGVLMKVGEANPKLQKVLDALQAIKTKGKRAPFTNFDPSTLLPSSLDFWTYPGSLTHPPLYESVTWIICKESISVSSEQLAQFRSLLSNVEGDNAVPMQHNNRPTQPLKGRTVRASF
Sequence of Carbonic anhydrase 4 (P22748 whole entry): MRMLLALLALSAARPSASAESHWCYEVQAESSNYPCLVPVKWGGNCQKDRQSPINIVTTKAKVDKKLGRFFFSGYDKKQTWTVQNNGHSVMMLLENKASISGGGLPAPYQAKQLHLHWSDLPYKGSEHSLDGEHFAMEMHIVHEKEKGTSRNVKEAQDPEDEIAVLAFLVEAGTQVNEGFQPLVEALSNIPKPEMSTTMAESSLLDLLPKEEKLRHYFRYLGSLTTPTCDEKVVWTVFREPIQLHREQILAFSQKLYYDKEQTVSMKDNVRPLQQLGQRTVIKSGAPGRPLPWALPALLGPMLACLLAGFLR

The term pKi denotes the negative decadic logarithm of the Ki, by convention in mol/L. For the molecule `O=S(=O)(O)O[C@H]1CC2c3ccccc3C1[C@@H]2O` (stereo partly drawn) [9(R(S))-Hydroxy-1,2,3,4-tetrahydro-1,4-methanonaphthalen-2(R(S))-yl sulfate (8)], the pKi in test [1] is 4.49; in test [2], 4.98; in test [3], 3.70; in test [4], 3.66.
Take `O=S(=O)(O)O[C@@H]1CC/C=C\CC[C@H]1O` [trans-(1R(S),8R(S),Z)-8-Hydroxycyclooct-4-enyl hydrogen sulfate (6)]: the pKi is 4.11 in test [1], 5.27 in test [2], 4.79 in test [3] and 3.91 in test [4].
Turning to `O[C@@H]1CCCC[C@H]1O` [(1R,2R)-trans-1,2-cyclohexanediol], the pKi in test [1] was 3.87; in test [2], 5.33; in test [3], 4.73; in test [4], 4.12.
`O=S(=O)(O)O[C@@H]1CC=CC[C@H]1O` [trans-(1R(S),6R(S))-6-Hydroxycyclohex-3-enyl hydrogen sulfate (4)]: the pKi in test [1] is 4.38; in test [2] it was 5.67; in test [3] it was 4.86; in test [4], 4.03.
As to `O[C@@H]1C2C[C@H](O)C1c1ccccc12` (stereo partly drawn) [9(R(S))-Hydroxy-1,2,3,4-tetrahydro-1,4-methanonaphthalen-2(R(S))-diol (9)], the pKi in test [1] is 3.85; in test [2], 4.63; in test [3] it was 3.63; in test [4], 3.56.
For `O[C@@H]1Cc2ccccc2C[C@H]1O` [trans-(2R(S),3R(S))-1,2,3,4-Tetrahydronaphthalene-2,3-diol (11)], the pKi in test [1] is 3.37; in test [2], 4.49; in test [3], 4.11; in test [4], 3.90.

Source of the values: BindingDB's records for doi:10.3109/14756366.2011.629198 (Dumlupinar University, 2012).
